# Measurements: US8617563B2, “Antichlamydial agents” (Duke University, priority 2011, dated 2013)
# Entries after “also recorded” stand apart in the source; their conditions may differ. Where no end group is shown, it is not given here.
# Legend:
# CPAF [1] = biological target: T1, CPAF (Chlamydia trachomatis serovar D, UniProt O84866); format: cell-based, C. trachomatis; set-up: endogenous in cells; host or cells: HeLa cells infected with C. trachomatis LGV-L2 434/Bu (the bacteria make the protein and secrete it into the host cytosol); conditions: L2-infected HeLa cells, peptide at 12 hpi, harvested 30 hpi; 2-10 μM for vimentin
# Experimental: Uninfected and HeLa cells pre-infected with L2 for 30 hrs were treated with inhibitory peptides and infected with EBs for 10 min Tarp translocation was indirectly visualized with an anti-phosphotyrosine antibody (A) and quantified by counting 50 separate cells (B). The stability of newly translocated Tarp was assessed by infecting cells as in (A) but with S^35-labeled EBs, followed by sequential immunoprecipitation of Tarp and MOMP and Phosphoimager analysis of precipitated material (C (I-IV)). […] IC50 values were determined by assessing CPAF cleavage of an Abz-tagged CPAF substrate (SEQ ID NO:9) by HPLC. Assays were performed the presence of increasing amount of inhibitors. […] Extracellular bacteria were determined. […] The number of internalized EBs was quantified per cell (H). […]
# Rabbits were immunized with recombinant GST fusions to Ct005, IncC, IncD, Tarp, and hexa-histidine-tagged CPAF produced in E. coli BL-21 (available from Stratagene) and purified by affinity chromatography. […] To assess CPAF cleavage of membrane proteins and EB proteins, purified membranes and soluble EB protein lysate were incubated with 6× his-CPAF at 37° C., and resulting product analyzed by immunoblot. […]
# To establish if CPAF was inhibited by SEQ ID NO:7 during infection, vimentin cleavage was assessed in C. trachomatis LGV-L2 434-infected HeLa cells after treatment with a range of concentrations (2-10 μM).
# Target sequence in this assay (O84866 276-601): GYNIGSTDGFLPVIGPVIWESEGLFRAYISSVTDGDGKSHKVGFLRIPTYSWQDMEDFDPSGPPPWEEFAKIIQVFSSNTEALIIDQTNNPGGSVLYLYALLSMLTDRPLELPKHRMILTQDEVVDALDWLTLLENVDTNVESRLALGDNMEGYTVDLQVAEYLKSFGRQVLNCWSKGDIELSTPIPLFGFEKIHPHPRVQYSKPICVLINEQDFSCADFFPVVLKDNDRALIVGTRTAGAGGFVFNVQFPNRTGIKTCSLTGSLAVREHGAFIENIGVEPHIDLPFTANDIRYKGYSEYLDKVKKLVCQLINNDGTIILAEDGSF
# Target sequence in this assay (O84866 24-234): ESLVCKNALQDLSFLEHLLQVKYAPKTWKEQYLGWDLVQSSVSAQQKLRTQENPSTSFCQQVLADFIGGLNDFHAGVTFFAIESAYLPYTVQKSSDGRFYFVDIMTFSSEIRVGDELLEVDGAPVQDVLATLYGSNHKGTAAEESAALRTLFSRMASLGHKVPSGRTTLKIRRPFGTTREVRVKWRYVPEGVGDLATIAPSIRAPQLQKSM
# Caspase-1 = Caspase-1 activity in infected cells (FLICA, flow cytometry); format: cell-based, human; conditions: fluorescently labeled caspase-1 substrate
# Experimental: FIG. 13 depicts (A) that Caspase-1 inhibitors block Chlamydia-mediated cell death. Infected cells were treated with the Caspase-1 inhibitor Ac-YVAD-CMK at 2 hpi, and increasing concentrations of CPAF inhibitor added at 12 hpi. Cells were fixed and the percentage of cells with condensed nuclei determined at 24 hpi. (B) Enhanced Caspase-1 activation in infected cells lacking CPAF activity. Infected cells were labeled with a cell-permeable fluorescent substrate of Caspase-1 and treated with inhibitory peptides, and Caspase-1 activity was monitored by flow cytometry. (C) Caspase-1 and ASC are required for Chlamydia-mediated host cell death. […] Chlamydia replication and generation of IFUs in MLFs was assessed as in FIG. 9. […]
# Subsequent experiments tested whether CPAF inhibition led to the onset of apoptosis in infected cells. […] Apoptotic cells were identified with an AnnexinV-FLOUS Staining Kit (available from Roche) and activation of Caspase-1 was determined by labeling active Caspase-1 with a Carboxyfluorescein FLICA Detection Kit (available from Immunochemistry) and analyzed in a FACScanner (available from BD Biosciences). […] Consistent with result, Caspase-3 cleavage, another characteristic of apoptotic cell death, was not detected (FIG. 11C).
# CPAF [2] = biological target: T1, CPAF; test: FRET-based CPAF inhibition assay with model substrate SEQ ID NO:10; format: biochemical, C. trachomatis; set-up: 6xHis; made in house; host or cells: E. coli BL21 (DE3), plasmid pET30b-CPAF
# Experimental: FRET-based assays comprised an Abz-tagged model CPAF substrate with an additional C-terminal 3-nitrotyrosine quencher:
# The 3-nitrotyrosine moiety quenches Abz fluorescence until substrate cleavage occurs. FRET-based assays were performed in optical plates in a final volume of 100 μL containing 150 mM NaCl, 50 mM Tris pH 7.50, purified CPAF (62.5 nM), varying concentrations of model CPAF substrate (0.5 mM), and varying concentrations of each candidate compound (0-240 μM). IC50 values were determined by pre-incubating CPAF with varying concentrations of candidate compound for 5 min at room temperature prior to initiation of the reaction via the addition of model CPAF substrate. Reactions were initiated and read continuously at 420 nm for 10 minutes using a fluorescence microplate reader. The percentage of substrate converted was calculated using initial velocity over the first 90 seconds and converting RFU to concentration based on a standard curve with Abz followed by analysis in Graffit 6.0 using the equation of Example 8.
# Target sequence in this assay (O84866 276-601): as the sequence (O84866 276-601) above
# Target sequence in this assay (O84866 1-234, added parts left off): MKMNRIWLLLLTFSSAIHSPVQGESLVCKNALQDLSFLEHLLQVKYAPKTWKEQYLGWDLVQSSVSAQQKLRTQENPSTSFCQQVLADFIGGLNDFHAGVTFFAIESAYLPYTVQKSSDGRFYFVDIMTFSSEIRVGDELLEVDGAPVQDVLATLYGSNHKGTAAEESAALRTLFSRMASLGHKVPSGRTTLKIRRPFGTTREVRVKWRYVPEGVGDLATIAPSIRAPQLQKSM
substance,measurement,setting,value
SLFYSPMVPHFWAELRNHYATSGLKRRRRRRRRR-NH2 [SEQ ID NO:7],Inhibition of CPAF-mediated cleavage of vimentin and Puma in infected cells,CPAF [1],markedly inhibited; also recorded: loss of vimentin processing; also recorded: Vimentin and Puma cleavage was inhibited
same,Caspase-1 activity in infected cells,Caspase-1,significantly increased
same,IC50,CPAF [2],30 ± 6 nM
